Test results from PMC10461225, “Creation of a Peptide Antagonist of the GFRAL–RET Receptor Complex for the Treatment of GDF15-Induced Malaise” (Journal of Medicinal Chemistry, 2023).
Square brackets hold non-standard residues; d marks the D form. Ends that are not written are not given here. Peptide text beside a SMILES is read from it. PEG2‑C4‑alkyne‑biotin = PEG2-C4-alkyne-modified biotin; Lys(N3) = [N-]=[N+]=NCCCC[C@H](N)C(=O)O; K‑azido = azido-modified lysine

How the values were obtained:
Sprague–Dawley rats = tested on: Sprague–Dawley rats
Protocol: In a follow-up experiment, we evaluated responses to the gold standard antiemetic Ondansetron alone or in combination with GRASP to determine whether the combination would enhance the efficacy of the former compound in preventing CINV in rats.
All systemic treatments were delivered by intraperitoneal (IP) injection.
Rats (n = 98, 300–330 g) received IP injections of GRASP (100 nmol/kg), Ondansetron (2 mg/kg), both GRASP and Ondansetron together, or saline control […] before systemic administration of cisplatin. Six hours later, rats received a second injection of GRASP or vehicle control. Food and kaolin intake were measured at 3, 6, and 24 h postinjection.
All data were expressed as means ± SEM.

GFRAL ECD (Homo sapiens) = GFRAL ECD (Homo sapiens) (UniProt Q6UXV0); conditions: cited from earlier work
[1] = target: T1, Recombinant His-tagged human GFRAL (Ser19–Glu351) (human, UniProt Q6UXV0 19-351); experiment: SPR; biotin-GRASP immobilised on a streptavidin-coated biotin sensor (Nicoya OpenSPR); GFRAL-ECD (20, 100, 200, 600 nM), GDF15 (1 uM) or RET (0.29 uM) as analyte; HBSS pH 7.4; 1:1 fit with local Bmax (TraceDrawer); conditions: both partners purified
T1 construct: GDNF family receptor alpha-like (GFRAL), human, extracellular domain S19-E351 as defined by UniProt Q6UXV0; also called GFRAL–ECD; GFRAL (S19–E351); source: bought: ACRO Biosystems (GFA-H52H3), expressed in HEK293 cells
T1 sequence (looked up): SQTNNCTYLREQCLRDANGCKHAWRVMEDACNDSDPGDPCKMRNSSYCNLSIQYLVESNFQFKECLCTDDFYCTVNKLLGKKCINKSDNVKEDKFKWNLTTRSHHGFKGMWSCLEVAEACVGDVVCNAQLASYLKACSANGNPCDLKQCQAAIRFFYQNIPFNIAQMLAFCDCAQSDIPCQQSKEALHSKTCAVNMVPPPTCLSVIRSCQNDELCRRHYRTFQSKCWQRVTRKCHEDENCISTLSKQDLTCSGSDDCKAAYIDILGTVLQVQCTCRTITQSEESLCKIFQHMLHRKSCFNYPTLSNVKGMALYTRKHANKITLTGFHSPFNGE

[2] = target: T2, Full-length human GFRAL on stably transfected HEK293 cells (human, UniProt Q6UXV0 19-394); experiment: flow cytometry on cells; GRASPCy5 (0.1-1000 nM) in HBSS pH 7.4, 30 min at 37 °C, on HEK293 cells stably overexpressing full-length human GFRAL; untransfected HEK293 cells as control; conditions: one partner purified
T2 construct: GDNF family receptor alpha-like (GFRAL), human, full-length, overexpressed on HEK293 cells; also called GFRAL–HEK293 cells; GFRAL-expressing HEK293 cells; source: HEK293 cells stably overexpressing human GFRAL, bought: Creative Biogene (CSC-SC006226)
T2 sequence (looked up): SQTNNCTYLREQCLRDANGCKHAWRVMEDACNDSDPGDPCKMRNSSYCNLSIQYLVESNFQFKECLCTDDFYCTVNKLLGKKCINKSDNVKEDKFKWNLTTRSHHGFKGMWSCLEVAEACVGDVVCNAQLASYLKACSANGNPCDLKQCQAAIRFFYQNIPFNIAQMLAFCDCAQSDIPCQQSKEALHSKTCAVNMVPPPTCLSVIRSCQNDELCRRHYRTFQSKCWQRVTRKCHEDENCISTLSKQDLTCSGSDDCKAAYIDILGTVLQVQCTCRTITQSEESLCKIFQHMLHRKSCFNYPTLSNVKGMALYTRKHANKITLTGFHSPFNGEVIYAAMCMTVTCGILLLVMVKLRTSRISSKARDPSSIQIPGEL

[3] = target: T1, Recombinant His-tagged human GFRAL …; experiment: SPR; GFRAL (S19-E351) immobilised by amine coupling (EDC/NHS) on a high-capacity carboxyl sensor (Nicoya OpenSPR); peptides or GDF15 as analyte; HBSS pH 7.4 running buffer without BSA; 20 uL/min; conditions: both partners purified
[4] = GRASP 100 nmol/kg IP BID, Ondansetron 2 mg/kg IP, cisplatin 6 mg/kg IP, n = 10–16 per group
[5] = GRASP 100 nmol/kg IP BID alone or with Ondansetron 2 mg/kg IP, no cisplatin

Cc1nccn1CC1CCc2c(c3ccccc3n2C)C1=O (centres unmarked) [Ondansetron]
effect on cisplatin-induced anorexia (Sprague–Dawley rats; [4]): Neither Ond (2 mg/kg of IP) nor GRASP (100 nmol/kg of IP [BID]) alone had any impact | effect on cisplatin-induced kaolin intake (Sprague–Dawley rats; [4]): significantly reduced cisplatin-induced kaolin intake

GDF15 (from UniProt Q99988)
Kd (GFRAL ECD (Homo sapiens)): 1 nM

CC[C@H](C)[C@H](NC(=O)[C@H](CC(C)C)NC(=O)[C@H](CCC(=O)O)NC(=O)[C@H](CCC(=O)O)NC(=O)[C@H](CCCCN=[N+]=[N-])NC(=O)[C@@H](N)[C@@H](C)O)C(=O)N[C@@H](Cc1c[nH]cn1)C(=O)N[C@@H](C)C(=O)N[C@@H](Cc1c[nH]cn1)C(=O)N[C@@H](C)C(=O)N[C@@H](CC(=O)O)C(=O)N1CCC[C@H]1C(=O)N[C@@H](CCSC)C(=O)N[C@H](C(=O)N[C@@H](CC(C)C)C(=O)N[C@H](C(=O)N[C@@H](CCC(N)=O)C(=O)N[C@@H](CCCCN)C(=O)N[C@H](C(=O)N[C@@H](CC(=O)O)C(=O)N[C@H](C(=O)NCC(=O)N[C@H](C(=O)N[C@@H](CO)C(=O)N[C@@H](CC(C)C)C(=O)N[C@@H](CCC(N)=O)C(=O)N[C@H](C(=O)N[C@@H](Cc1ccc(O)cc1)C(=O)N[C@@H](CC(=O)O)C(N)=O)[C@@H](C)O)C(C)C)[C@@H](C)O)[C@@H](C)O)[C@@H](C)CC)C(C)C [GRASP] (H-T[Lys(N3)]EELIHAHADPMVLIQKTDTGVSLQTYD-NH2)
impact on food or kaolin intake in healthy rats (Sprague–Dawley rats; [5]): had no impact on food or kaolin intake in healthy rats | tolerability in healthy rats (Sprague–Dawley rats; [5]): well-tolerated

B1: Biotinylated GRASP (peptide)
peptide: T[K‑azido](PEG2‑C4‑alkyne‑biotin)EELIHAHADPMVLIQKTDTGVSLQTYD
notes: GRASP peptide as m1, biotin on the azido-lysine at position 2; Held on the sensor through biotin-streptavidin (His-tagged streptavidin on a biotin sensor); also called biotin-conjugated GRASP; biotin-GRASP; source: synthetic peptide, conjugated to PEG2-C4-alkyne biotin, RP-HPLC purified (95%)
Kd [1]: 74.1 nM

B2: GRASPCy5 (peptide)
peptide: TKEELIHAHADPMVLIQKTDTGVSLQTYD
modifications: not fully specified (residue 2); printed as T(K-azido)EELIHAHADPMVLIQKTDTGVSLQTYD
notes: GRASP peptide as m1, sulfo-Cy5 on the azido-lysine at position 2; also called sulfo-Cy5 GRASP conjugate; GRASP(K2)–fluorophore conjugate; source: synthetic peptide, conjugated to DBCO-Cy5, RP-HPLC purified (95%)
Kd [2]: 8.98 nM

B3: GRASP (K2-azido-modified 29-amino acid peptide) (peptide)
peptide: T[K‑azido]EELIHAHADPMVLIQKTDTGVSLQTYD
notes: designed peptide with GDF15-like loop regions; printed as T(K-azido)[residues removed]; In-house synthesis was on a Rink amide resin, which would give a C-terminal amide; also called GFRAL receptor antagonist; unlabeled GRASP; source: synthetic peptide (Genscript or in-house solid-phase synthesis), HPLC purified to >95%
Kd [3]: 179000 nM
